Data set [1] is described as follows: refractive index (Na D-line) (dimensionless). The note with it: 298.15 K; 101.33 kPa; Liquid; Standard Abbe refractometry.
For data set [2] the following is noted: Liquid, Ebulliometric method (Recirculating still).

± gives the expanded uncertainty stated by the source.

Broadly, the refractive index is the speed of light in vacuum divided by its phase velocity in the sample. One may read the vapor or sublimation pressure as the pressure of vapour in equilibrium with the condensed phase. For the compound `CC(C)O` [propan-2-ol], the refractive index in data set [1] is 1.375 ± 0.0007. Besides, the “vapor or sublimation pressure” value in data set [2] (355.5 K) is on record as 101.3 ± 0.6 kPa.
For the compound `CO` [methanol], the refractive index in data set [1] was 1.3261 ± 0.0007. For the same compound, in data set [2] (337.68 K), the “vapor or sublimation pressure” value worked out at 101.3 ± 0.6 kPa.
On to `CCC(C)(C)O` [2-methylbutan-2-ol], for which the refractive index in data set [1] was found to be 1.4018 ± 0.0007. Besides, the “vapor or sublimation pressure” value in data set [2] (375.14 K) is reported as 101.3 ± 0.6 kPa.
